We go through four compounds from patent US10538567B2, “Compounds as peptidic trigonal GLP1/glucagon/GIP receptor agonists” (priority 2016, dated 2020).

Numbered stars: 1 amine (or outer) side, 2 acyl side, 3 side chain; on linkers, the order of the positions; unused ones are H or OH. Square brackets hold non-standard residues; d marks the D form. Side chains are listed from the residue outwards. Peptide text beside a SMILES is read from it. * marks the point of attachment. γGlu = O=C(O)[C@H](CCC(=O)[*:2])N[*:1]; Palmitoyl = CCCCCCCCCCCCCCCC(=O)*; Aib = CC(C)(N)C(=O)O

Series [1] is described as follows: Dynamic light scattering, hydrodynamic radius as surrogate for DLS interaction parameter kD. Particulars: for Delta Rh [nm] = Rh5 − Rh1: DLS buffer system A pH 4.5; for Rh1 [nm] c = 1 mg/ml / Rh5 [nm] c = 5 mg/ml: hydrodynamic radius, DLS buffer system A pH 4.5, method C, 25° C. In kind it is physicochemical. From the text: A monochromatic and coherent light beam (laser) is used to illuminate the liquid sample. Dynamic Light Scattering (DLS) measures light scattered from particles (1 nm≤radius≤1 μm) that undergo Brownian motion. This motion is induced by collisions between the particles and solvent molecules that themselves are moving due to their thermal energy. The diffusional motion of the particles results in temporal fluctuations of the scattered light [Pecora, R. Dynamic Light Scattering: Applications of Photon Correlation Spectroscopy, Plenum Press, 1985].
The scattered light intensity fluctuations are recorded and transformed into an autocorrelation function. By fitting the autocorrelation curve to an exponential function, the diffusion coefficient D of the particles in solution can be derived. The diffusion coefficient is then used to calculate the hydrodynamic radius Rh (or apparent Stokes radius) through the Stokes-Einstein equation assuming spherical particles. This calculation is defined in ISO 13321 and ISO 22412 [International Standard ISO13321 Methods for Determination of Particle Size Distribution Part 8: Photon Correlation Spectroscopy, International Organisation for Standardisation (ISO) 1996; International Standard ISO22412 Particle Size Analysis—Dynamic Light Scattering, International Organisation for Standardisation (ISO) 2008].
For every peptide solution, the hydrodynamic radius Rh and the diffusion constant D (related via the Stokes-Einstein equation) were determined as an average over triplicates. Both parameters were determined at different peptide concentrations (e.g., Rh1 and D1: 1 mg/ml and Rh5 and D5: 5 mg/ml) in the same buffer system. The difference of these parameters between low and high peptide concentration is a surrogate for the DLS interaction parameter kD. Rh5<Rh1 or D5>D1 correspond to kD>0 and therefore to repulsive inter-particle interactions that result in improved physical (or colloidal) stability.
DLS buffer system A) 25 mM acetate buffer pH 4.5, 3 mg/mL L-Methionine, 2.7 mg/mL m-cresol, 18 mg/mL Glycerol 85%
DLS Method C: DLS measurements were performed on a DynaPro Plate Reader II (Wyatt Technology, Santa Barbara, Calif., US) and using one of the following black, low volume, and non-treated plates: polystyrene 384 assay plate with clear bottom (Corning, N.Y., US), polystyrene 96 assay plate with clear bottom (Corning, N.Y., US), cyclo olefin polymer (COP) 384 assay plate with clear bottom (Aurora, Mont., US), or polystyrene 384 assay plate with clear bottom (Greiner Bio-One, Germany). The data were processed with the Dynamics software provided by Wyatt Technology. Parameters of the particle size distribution were determined with non-negatively constrained least squares (NNLS) methods using DynaLS algorithms. Measurements were taken at 25° C. with an 830 nm laser light source at an angle of 158°.
The hydrodynamic radius Rh of peptide samples was determined at different peptide concentrations (1 mg/ml and 5 mg/ml) in DLS buffer system A using DLS method C as described in Methods as surrogate for the DLS interaction parameter kD.

The target in a further series is T1, human GIP receptor (Homo sapiens, UniProt P48546).
T1 construct: expressed in transfected cells; host or cells: HEK-293
T1 sequence (P48546 22-466): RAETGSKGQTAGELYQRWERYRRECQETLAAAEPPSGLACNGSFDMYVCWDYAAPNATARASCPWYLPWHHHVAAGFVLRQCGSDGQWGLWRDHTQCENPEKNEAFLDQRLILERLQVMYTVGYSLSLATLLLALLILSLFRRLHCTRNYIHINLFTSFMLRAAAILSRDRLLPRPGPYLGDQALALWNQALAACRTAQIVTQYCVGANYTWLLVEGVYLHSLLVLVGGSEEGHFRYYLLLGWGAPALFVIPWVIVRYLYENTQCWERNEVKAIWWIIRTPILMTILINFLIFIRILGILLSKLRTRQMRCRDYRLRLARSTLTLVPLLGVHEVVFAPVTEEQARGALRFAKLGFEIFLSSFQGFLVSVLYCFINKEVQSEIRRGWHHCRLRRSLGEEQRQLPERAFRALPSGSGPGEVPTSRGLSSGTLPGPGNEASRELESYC
Nature of the series: cAMP response (HTRF) of HEK-293 cells stably expressing human GIP receptor. The series is classed as cell-based. Particulars: Table 8; read-out: EC50 hGIP R. As for the experimental part:
Agonism of compounds for the receptors was determined by functional assays measuring cAMP response of HEK-293 cell lines stably expressing human GLP-1, GIP or glucagon receptor.
cAMP content of cells was determined using a kit from Cisbio Corp. (cat. no. 62AM4PEJ) based on HTRF (Homogenous Time Resolved Fluorescence). For preparation, cells were split into T175 culture flasks and grown overnight to near confluency in medium (DMEM/10% FBS). Medium was then removed and cells washed with PBS lacking calcium and magnesium, followed by proteinase treatment with accutase (Sigma-Aldrich cat. no. A6964). Detached cells were washed and resuspended in assay buffer (1×HBSS; 20 mM HEPES, 0.1% BSA, 2 mM IBMX) and cellular density determined. They were then diluted to 400000 cells/ml and 25 μl-aliquots dispensed into the wells of 96-well plates. For measurement, 25 μl of test compound in assay buffer was added to the wells, followed by incubation for 30 minutes at room temperature. After addition of HTRF reagents diluted in lysis buffer (kit components), the plates were incubated for 1 hr, followed by measurement of the fluorescence ratio at 665/616 nm. In vitro potency of agonists was quantified by determining the concentrations that caused 50% activation of maximal response (EC50).
Potencies of peptidic compounds at the GLP-1, glucagon and GIP receptors were determined by exposing cells expressing human glucagon receptor (hGlucagon R), human GIP receptor (hGIP-R) or human GLP-1 receptor (hGLP-1 R) to the listed compounds at increasing concentrations and measuring the formed cAMP as described in Methods.

As for `CCCCCCCCCCCCCCCC(=O)N[C@@H](CCC(=O)N[C@@H](CCC(=O)NCCCC[C@H](NC(=O)[C@H](CC(C)C)NC(=O)[C@H](CCCCN)NC(=O)[C@H](CO)NC(=O)[C@H](CC(C)C)NC(=O)[C@H](CC(=O)O)NC(=O)[C@H](CO)NC(=O)[C@@H](NC(=O)[C@H](Cc1ccccc1)NC(=O)[C@@H](NC(=O)CNC(=O)[C@H](Cc1c[nH]cn1)NC(=O)C(C)(C)NC(=O)[C@@H](N)Cc1c[nH]cn1)[C@@H](C)O)[C@@H](C)O)C(=O)N[C@@H](CCC(=O)O)C(=O)N[C@@H](CCC(=O)O)C(=O)N[C@@H](CCC(N)=O)C(=O)N[C@@H](CCCNC(=N)N)C(=O)N[C@@H](CCC(N)=O)C(=O)N[C@@H](CCCCN)C(=O)N[C@@H](CCC(=O)O)C(=O)N[C@@H](Cc1ccccc1)C(=O)N[C@H](C(=O)N[C@@H](CCC(=O)O)C(=O)N[C@@H](Cc1c[nH]c2ccccc12)C(=O)N[C@@H](CC(C)C)C(=O)N[C@@H](CCCCN)C(=O)N[C@@H](C)C(=O)NCC(=O)NCC(=O)N[C@@H](Cc1c[nH]cn1)C(=O)N1CCC[C@H]1C(=O)N[C@@H](CO)C(=O)NC(C)(C)C(=O)N[C@@H](CCCCN)C(=O)N1CCC[C@H]1C(=O)N1CCC[C@H]1C(=O)N1CCC[C@H]1C(=O)N[C@@H](CCCCN)C(N)=O)[C@@H](C)CC)C(=O)O)C(=O)O` [SEQ ID NO: 6, H-Aib-H-G-T-F-T-S-D-L-S-K-L-K[gGlu-gGlu-Palm]-E-E-Q-R-Q-K-E-F-I-E-W-L-K-A-G-G-H-P-S-Aib-K-P-P-P-K-NH2], in series [1], the “Delta Rh [nm] = Rh5 − Rh1” value is −0.9 nm, the “Rh1 [nm] c = 1 mg/ml” value amounted to 2.5 nm and the “Rh5 [nm] c = 5 mg/ml” value is recorded as 1.7 nm.
Turning to `CCCCCCCCCCCCCCCC(=O)N[C@@H](CCC(=O)N[C@@H](CCC(=O)NCCCC[C@H](NC(=O)[C@H](CC(C)C)NC(=O)[C@H](CCCCN)NC(=O)[C@H](CO)NC(=O)[C@H](CC(C)C)NC(=O)[C@H](CC(=O)O)NC(=O)[C@H](CO)NC(=O)[C@@H](NC(=O)[C@H](Cc1ccccc1)NC(=O)[C@@H](NC(=O)CNC(=O)[C@H](Cc1c[nH]cn1)NC(=O)C(C)(C)NC(=O)[C@@H](N)Cc1c[nH]cn1)[C@@H](C)O)[C@@H](C)O)C(=O)N[C@@H](CCC(=O)O)C(=O)N[C@@H](CCC(=O)O)C(=O)N[C@@H](CCC(N)=O)C(=O)N[C@@H](CCCNC(=N)N)C(=O)N[C@@H](CCC(N)=O)C(=O)N[C@@H](CCCCN)C(=O)N[C@@H](CCC(=O)O)C(=O)N[C@@H](Cc1ccccc1)C(=O)N[C@H](C(=O)N[C@@H](CCC(=O)O)C(=O)N[C@@H](Cc1c[nH]c2ccccc12)C(=O)N[C@@H](CC(C)C)C(=O)N[C@@H](CCCCN)C(=O)N[C@@H](C)C(=O)N[C@H](C)C(=O)NCC(=O)N[C@@H](Cc1c[nH]cn1)C(=O)N1CCC[C@H]1C(=O)N[C@@H](CO)C(=O)NC(C)(C)C(=O)N[C@@H](CCCCN)C(=O)N1CCC[C@H]1C(=O)N1CCC[C@H]1C(=O)N1CCC[C@H]1C(=O)N[C@@H](CCCCN)C(N)=O)[C@@H](C)CC)C(=O)O)C(=O)O` [SEQ ID NO: 7, H-Aib-H-G-T-F-T-S-D-L-S-K-L-K[gGlu-gGlu-Palm]-E-E-Q-R-Q-K-E-F-I-E-W-L-K-A-dAla-G-H-P-S-Aib-K-P-P-P-K-NH2] (H-H[Aib]HGTFTSDLSKLK([γGlu-γGlu-Palmitoyl])EEQRQKEFIEWLKA[dA]GHPS[Aib]KPPPK-NH2), at human GIP receptor, the EC50 was 2.6 pM.
For the compound `CCCCCCCCCCCCCCCC(=O)N[C@@H](CCC(=O)N[C@@H](CCC(=O)NCCCC[C@H](NC(=O)[C@H](CC(C)C)NC(=O)[C@H](CCCCN)NC(=O)[C@H](CO)NC(=O)[C@H](CC(C)C)NC(=O)[C@H](CC(=O)O)NC(=O)[C@H](CO)NC(=O)[C@@H](NC(=O)[C@H](Cc1ccccc1)NC(=O)[C@@H](NC(=O)CNC(=O)[C@H](Cc1c[nH]cn1)NC(=O)C(C)(C)NC(=O)[C@@H](N)Cc1c[nH]cn1)[C@@H](C)O)[C@@H](C)O)C(=O)N[C@@H](CCC(=O)O)C(=O)N[C@@H](CCC(=O)O)C(=O)N[C@@H](CCC(N)=O)C(=O)N[C@@H](CCCNC(=N)N)C(=O)N[C@@H](CCC(N)=O)C(=O)N[C@@H](CCCCN)C(=O)N[C@@H](CCC(=O)O)C(=O)N[C@@H](Cc1ccccc1)C(=O)N[C@H](C(=O)N[C@@H](CCC(=O)O)C(=O)N[C@@H](Cc1c[nH]c2ccccc12)C(=O)N[C@@H](CC(C)C)C(=O)N[C@@H](CCCCN)C(=O)N[C@@H](C)C(=O)N[C@H](C)C(=O)NCC(=O)N1CCC[C@H]1C(=O)N1CCC[C@H]1C(=O)N[C@@H](CO)C(=O)NC(C)(C)C(=O)N[C@@H](CCCCN)C(=O)N1CCC[C@H]1C(=O)N1CCC[C@H]1C(=O)N1CCC[C@H]1C(=O)N[C@@H](CCCCN)C(N)=O)[C@@H](C)CC)C(=O)O)C(=O)O` [SEQ ID NO: 9, H-Aib-H-G-T-F-T-S-D-L-S-K-L-K[gGlu-gGlu-Palm]-E-E-Q-R-Q-K-E-F-I-E-W-L-K-A-dAla-G-P-P-S-Aib-K-P-P-P-K-NH2] (H-H[Aib]HGTFTSDLSKLK([γGlu-γGlu-Palmitoyl])EEQRQKEFIEWLKA[dA]GPPS[Aib]KPPPK-NH2), on human GIP receptor, the EC50 amounted to 2.6 pM. For the same compound, in series [1], the “Delta Rh [nm] = Rh5 − Rh1” value is −0.2 nm, the “Rh1 [nm] c = 1 mg/ml” value stood at 2.8 nm and the “Rh5 [nm] c = 5 mg/ml” value amounted to 2.6 nm.
In the case of `CCCCCCCCCCCCCCCC(=O)N[C@@H](CCC(=O)N[C@@H](CCC(=O)NCCCC[C@H](NC(=O)[C@H](CC(C)C)NC(=O)[C@H](CCCCN)NC(=O)[C@H](CO)NC(=O)[C@H](CC(C)C)NC(=O)[C@H](CC(=O)O)NC(=O)[C@H](CO)NC(=O)[C@@H](NC(=O)[C@H](Cc1ccccc1)NC(=O)[C@@H](NC(=O)CNC(=O)[C@H](Cc1c[nH]cn1)NC(=O)C(C)(C)NC(=O)[C@@H](N)Cc1c[nH]cn1)[C@@H](C)O)[C@@H](C)O)C(=O)N[C@@H](CCC(=O)O)C(=O)N[C@@H](CCC(=O)O)C(=O)N[C@@H](CCC(N)=O)C(=O)N[C@@H](CCCNC(=N)N)C(=O)N[C@@H](CCC(N)=O)C(=O)NC(C)(C)C(=O)N[C@@H](CCC(=O)O)C(=O)N[C@@H](Cc1ccccc1)C(=O)N[C@H](C(=O)N[C@@H](CCC(=O)O)C(=O)N[C@@H](Cc1c[nH]c2ccccc12)C(=O)N[C@@H](CC(C)C)C(=O)N[C@@H](CCCCN)C(=O)N[C@@H](C)C(=O)NCC(=O)NCC(=O)N1CCC[C@H]1C(=O)N1CCC[C@H]1C(=O)N[C@@H](CO)C(=O)NC(C)(C)C(=O)N[C@@H](CCCCN)C(=O)N1CCC[C@H]1C(=O)N1CCC[C@H]1C(=O)N1CCC[C@H]1C(=O)N[C@@H](CCCCN)C(N)=O)[C@@H](C)CC)C(=O)O)C(=O)O` [SEQ ID NO: 10, H-Aib-H-G-T-F-T-S-D-L-S-K-L-K[gGlu-gGlu-Palm]-E-E-Q-R-Q-Aib-E-F-I-E-W-L-K-A-G-G-P-P-S-Aib-K-P-P-P-K-NH2], the EC50 on human GIP receptor was 1.1 pM.
